# Reference: the supplement of paper PMC10307832
# Legend:
# Assay in all cases: relative viability (nuclei count vs DMSO), 5 days (fraction); higher = more cells survive
# Vorinostat = compound: O=C(CCCCCCC(=O)Nc1ccccc1)NO [Vorinostat]
# How it was run: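 For viability, nuclei in each treated well were divided by nuclei in vehicle wells and the median across plates was taken. Lung cancer cell lines in 1536-well plates were pinned with five library-drug doses (not always all listed) spaced by √10, cultured 5 days without medium change, and imaged at 4× after Hoechst staining, with plates passing only at control CV below 25% and at least one doubling.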
# Vorinostat + Palbociclib = compound: O=C(CCCCCCC(=O)Nc1ccccc1)NO [Vorinostat] + CC(=O)c1c(C)c2cnc(Nc3ccc(N4CCNCC4)cn3)nc2n(C2CCCC2)c1=O [Palbociclib] (partner 0.5 µM)
# How it was run: (§1)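 Lung cancer cell lines were pin-tool dosed in 1536-well plates on the day after seeding, with either a lone drug or a fixed anchor-drug dose plus five library-drug doses (not always all listed) in √10 steps. Nuclei were counted on 4× images after 5 days. Relative viability is the ratio of treated-well to vehicle-well nuclei counts, with each value a median of duplicate plates.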
# Vorinostat + Foretinib = compound: O=C(CCCCCCC(=O)Nc1ccccc1)NO [Vorinostat] + COc1cc2c(Oc3ccc(NC(=O)C4(C(=O)Nc5ccc(F)cc5)CC4)cc3F)ccnc2cc1OCCCN1CCOCC1 [Foretinib] (partner 0.25 µM)
# How it was run: as §1
# Vorinostat + Lapatinib = compound: O=C(CCCCCCC(=O)Nc1ccccc1)NO [Vorinostat] + CS(=O)(=O)CCNCc1ccc(-c2ccc3ncnc(Nc4ccc(OCc5cccc(F)c5)c(Cl)c4)c3c2)o1 [Lapatinib] (partner 2 µM)
# How it was run: as §1
Cell Line,relative viability (Vorinostat; 0.253 µM),relative viability (Vorinostat; 0.8 µM),"relative viability (Vorinostat; 1 µM, anchor plate)",relative viability (Vorinostat; 2.53 µM),relative viability (Vorinostat; 8 µM),relative viability (Vorinostat + Palbociclib; first compound 0.253 µM),relative viability (Vorinostat + Palbociclib; first compound 0.8 µM),relative viability (Vorinostat + Palbociclib; first compound 2.53 µM),relative viability (Vorinostat + Palbociclib; first compound 8 µM),relative viability (Vorinostat + Foretinib; first compound 0.253 µM),relative viability (Vorinostat + Foretinib; first compound 0.8 µM),relative viability (Vorinostat + Foretinib; first compound 2.53 µM),relative viability (Vorinostat + Foretinib; first compound 8 µM),relative viability (Vorinostat + Lapatinib; first compound 0.253 µM),relative viability (Vorinostat + Lapatinib; first compound 0.8 µM),relative viability (Vorinostat + Lapatinib; first compound 2.53 µM),relative viability (Vorinostat + Lapatinib; first compound 8 µM)
NCI-H727,1.11,0.813,1.19,0.514,0.31,0.688,0.633,0.606,0.51,0.855,0.821,0.378,0.329,0.632,0.736,0.335,0.227
NCI-H1793,1.37,0.951,0.821,0.817,0.29,0.283,0.279,0.213,0.159,1.03,0.679,0.257,0.204,0.588,0.613,0.375,0.162
NCI-H650,0.939,0.792,0.457,0.481,0.158,0.338,0.319,0.159,0.118,0.998,0.907,0.213,0.151,1.15,0.489,0.196,0.177
HCC-366,1.01,0.956,0.371,0.524,0.045,0.345,0.182,0.0412,0.0283,1.03,0.333,0.0524,0.0624,1.16,0.741,0.0772,0.0322
NCI-H2009,1.14,0.878,0.711,0.482,0.153,0.267,0.25,0.171,0.0986,1.28,1.22,0.716,0.143,1.06,0.503,0.329,0.133
NCI-H838,1.15,1.03,0.763,0.565,0.191,0.262,0.218,0.183,0.116,1.33,1.05,0.51,0.173,1.44,0.863,0.425,0.148
HCC-78,0.963,0.674,0.468,0.3,0.221,0.467,0.518,0.438,0.344,0.683,0.448,0.221,0.221,0.705,0.455,0.249,0.155
NCI-H2170,1.08,0.969,0.847,0.539,0.158,0.407,0.345,0.253,0.102,0.982,1.04,0.675,0.526,0.283,0.273,0.238,0.198
NCI-H2085,1.05,0.939,0.815,0.714,0.369,0.464,0.419,0.302,0.172,0.968,0.665,0.468,0.228,0.676,0.608,0.494,0.278
NCI-H2228,0.93,0.802,0.654,0.476,0.146,0.713,0.431,0.22,0.0631,0.917,0.537,0.311,0.0906,1.34,0.519,0.261,0.122
PC-14,1.25,0.886,0.725,0.171,0.051,0.56,0.351,0.0802,0.0377,1.15,1.04,0.62,0.0829,0.36,0.251,0.135,0.0961
A-427,1.15,0.972,0.862,0.517,0.176,0.522,0.496,0.331,0.227,1.21,1.13,0.561,0.191,1.1,1.05,0.929,0.23
NCI-H1755,1.08,1.01,0.735,0.566,0.292,0.431,0.463,0.3,0.209,0.997,0.971,0.525,0.202,1.05,1.03,0.28,0.154
NCI-H1666,1.05,0.955,1.01,0.514,0.348,0.634,0.576,0.523,0.511,0.982,0.906,0.387,0.349,0.606,0.339,0.228,0.167
LOU-NH91,1.09,0.918,0.94,0.829,0.423,0.533,0.515,0.512,0.384,1.08,0.917,0.758,0.347,0.843,0.799,0.688,0.346
HARA,1.03,0.593,0.561,0.434,0.121,0.32,0.295,0.184,0.133,0.965,0.495,0.151,0.0596,0.849,0.682,0.237,0.112
NCI-H358,1.33,1.05,0.697,0.255,0.118,0.139,0.167,0.101,0.0793,1.01,0.649,0.154,0.0783,0.642,0.566,0.276,0.199

Cell Line,relative viability (Vorinostat; 0.253 µM),relative viability (Vorinostat; 0.8 µM),"relative viability (Vorinostat; 1 µM, anchor plate)",relative viability (Vorinostat; 2.53 µM),relative viability (Vorinostat; 8 µM),relative viability (Vorinostat + Palbociclib; first compound 0.253 µM),relative viability (Vorinostat + Palbociclib; first compound 0.8 µM),relative viability (Vorinostat + Palbociclib; first compound 2.53 µM),relative viability (Vorinostat + Palbociclib; first compound 8 µM),relative viability (Vorinostat + Foretinib; first compound 0.253 µM),relative viability (Vorinostat + Foretinib; first compound 0.8 µM),relative viability (Vorinostat + Foretinib; first compound 2.53 µM),relative viability (Vorinostat + Foretinib; first compound 8 µM),relative viability (Vorinostat + Lapatinib; first compound 0.253 µM),relative viability (Vorinostat + Lapatinib; first compound 0.8 µM),relative viability (Vorinostat + Lapatinib; first compound 2.53 µM),relative viability (Vorinostat + Lapatinib; first compound 8 µM)
NCI-H460,1.09,0.955,0.715,0.144,0.0458,0.146,0.0944,0.0356,0.011,1.09,0.927,0.0567,0.0329,1.35,0.742,0.0269,0.0111
NCI-H1395,0.91,0.919,0.834,0.631,0.387,0.714,0.688,0.537,0.309,1.09,1.09,0.822,0.427,1.26,0.906,0.671,0.371
NCI-H1651,1.01,0.928,0.579,0.203,0.0791,0.545,0.494,0.154,0.0594,0.879,0.791,0.228,0.0797,1.07,0.532,0.108,0.0671
EKVX,1.09,1.01,0.77,0.688,0.175,0.401,0.398,0.199,0.125,0.859,0.931,0.714,0.138,0.217,0.209,0.173,0.107
EPLC-272H,0.976,0.767,0.533,0.373,0.157,0.289,0.294,0.217,0.171,0.581,0.512,0.0722,0.133,0.788,0.761,0.278,0.14
NCI-H2023,1.22,0.771,0.709,0.209,0.0744,0.467,0.375,0.199,0.0512,1.13,0.82,0.31,0.0629,1.01,0.597,0.186,0.0723
NCI-H1734,1.28,0.982,0.832,0.688,0.15,0.402,0.34,0.253,0.133,0.944,0.917,0.526,0.176,1.33,0.993,0.678,0.162
NCI-H2405,1.05,1.17,1.01,0.57,0.144,0.604,0.627,0.286,0.13,1.16,1.15,0.505,0.108,1.36,1.18,0.306,0.0576
LXF-289,1.1,1.01,0.791,0.624,0.195,0.65,0.599,0.476,0.0862,0.981,0.97,0.3,0.0942,0.985,0.859,0.468,0.116
HCC-827,1.15,1.12,0.882,0.934,0.416,0.576,0.506,0.333,0.135,1.07,1.02,0.55,0.174,0.219,0.204,0.155,0.161
RERF-LC-KJ,1.04,0.911,0.698,0.405,0.246,1.09,0.929,0.333,0.211,1,0.791,0.743,0.248,0.938,0.781,0.733,0.227
NCI-H1355,1.16,0.852,0.673,0.598,0.192,0.411,0.356,0.214,0.138,1.05,1.01,0.562,0.156,1.02,0.792,0.693,0.157
NCI-H647,1.16,0.731,0.539,0.199,0.0541,0.453,0.158,0.0854,0.0249,1.08,1.04,0.507,0.0683,1.49,0.947,0.163,0.0687
LK-2,1.18,0.67,0.309,0.207,0.0969,0.724,0.585,0.104,0.0605,1.03,0.896,0.28,0.137,1.19,0.673,0.209,0.108
H3255,1.02,1.13,0.791,0.573,0.286,0.349,0.337,0.303,0.232,0.859,0.868,0.812,0.223,0.24,0.17,0.141,0.101
NCI-H1915,1.12,0.878,0.524,0.514,0.123,0.563,0.436,0.167,0.0832,1.14,1.05,0.474,0.137,1.03,0.962,0.673,0.0743
NCI-H3122,1.06,1.04,0.986,0.737,0.156,0.19,0.254,0.142,0.0743,1.04,1.05,0.242,0.0563,1.03,0.981,0.939,0.167
